Consider two molecules from ChEMBL document CHEMBL3774369, “Tetrahydroisoquinoline Phenols: Selective Estrogen Receptor Downregulator Antagonists with Oral Bioavailability in Rat” (ACS Med Chem Lett, 2016).

The nature of data set [1]: Intrinsic clearance in Han Wistar rat hepatocytes assessed per 10^6 cells. In kind it is ADME, cell-based, Hepatocyte. To be noted: read-out: CLH.
Data set [2] in a line: Percentage unbound in Han Wistar rat plasma by equilibrium dialysis method. Type of data set: ADME, cell-free. In general terms: Equilibrium dialysis compares concentrations on both sides of a semipermeable membrane.
In data set [3] the target is Voltage-gated inwardly rectifying potassium channel KCNH2 (Homo sapiens, UniProt Q12809). Nature of the data set: Inhibition of human ERG tail current by plate-based planar patch clamp system.
A short description of data set [4]: Inhibition of cytochrome P450 (unknown origin). Type of data set: ADME, Homo sapiens.
The nature of data set [5]: Half life in rat at 0.5 mg/kg, iv. Type of data set: ADME, organism-based. The settings on record: in vivo.
Data set [6] in a line: Half life in rat at 1 mg/kg, po. The settings on record: in vivo. In kind it is ADME, organism-based.
Data set [7] can be described thus: Percentage unbound in human plasma by equilibrium dialysis method. Type of data set: ADME, cell-free.
A short description of data set [8]: Solubility of compound in aqueous phosphate buffer at pH 7.4 after 24 hrs. Type of data set: physicochemical.
The nature of data set [9]: Intrinsic clearance in human hepatocytes assessed per 10^6 cells. Type of data set: ADME, cell-based, Hepatocyte. To be noted: read-out: CLH.
Data set [10] in a line: in vivo. The settings on record: rat, po, 1 mg/kg.
Data set [11] concerns the target Mu-type opioid receptor (Homo sapiens, UniProt P35372). Nature of the data set: Inhibition of human recombinant mu1 opioid receptor expressed in HEK293 cells. Type of data set: cell-based.
Data set [12] in a line: Volume of distribution at steady state in rat at 0.5 mg/kg, iv or 1 mg/kg, po. In kind it is ADME, organism-based. To be noted: in vivo, read-out: Vdss.
A short description of data set [13]: physchem. To be noted: buffer, pH 7.4.
Data set [14] deals with T1, Adenosine receptor A1 (Homo sapiens, UniProt P30542).
T1 sequence (P30542 whole entry): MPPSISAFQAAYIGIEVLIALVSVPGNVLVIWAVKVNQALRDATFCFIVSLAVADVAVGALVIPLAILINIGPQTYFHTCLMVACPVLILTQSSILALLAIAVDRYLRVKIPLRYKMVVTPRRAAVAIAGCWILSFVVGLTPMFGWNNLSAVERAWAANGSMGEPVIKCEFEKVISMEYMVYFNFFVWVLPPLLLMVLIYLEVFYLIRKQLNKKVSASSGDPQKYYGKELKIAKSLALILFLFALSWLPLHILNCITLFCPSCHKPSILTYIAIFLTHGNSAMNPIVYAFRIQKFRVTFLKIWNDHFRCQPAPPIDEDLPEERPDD
As to the kind of experiment: Inhibition of recombinant human adenosine receptor A1 expressed in CHO cells. Type of data set: cell-based.

For data set [15], the target named is T2, B2 bradykinin receptor (Homo sapiens, UniProt P30411).
T2 sequence (P30411 whole entry): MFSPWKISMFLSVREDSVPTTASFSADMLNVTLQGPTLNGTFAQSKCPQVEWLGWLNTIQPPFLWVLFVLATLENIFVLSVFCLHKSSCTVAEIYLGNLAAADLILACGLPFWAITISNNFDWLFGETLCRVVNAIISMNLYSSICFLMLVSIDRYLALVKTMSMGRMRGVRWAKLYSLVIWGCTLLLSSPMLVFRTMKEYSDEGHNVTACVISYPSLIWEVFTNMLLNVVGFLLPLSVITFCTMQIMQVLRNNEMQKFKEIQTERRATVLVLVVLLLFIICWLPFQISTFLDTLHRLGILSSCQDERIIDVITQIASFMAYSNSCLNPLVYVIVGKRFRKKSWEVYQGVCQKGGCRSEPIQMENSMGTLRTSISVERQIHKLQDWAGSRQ
As to the kind of experiment: Inhibition of recombinant human bradykinin receptor 2 expressed in CHO cells. In kind it is cell-based.

The nature of data set [16]: Clearance in rat at 0.5 mg/kg, iv or 1 mg/kg, po. Type of data set: ADME, organism-based. The settings on record: in vivo.

Chain of Mu-type opioid receptor (P35372 whole entry): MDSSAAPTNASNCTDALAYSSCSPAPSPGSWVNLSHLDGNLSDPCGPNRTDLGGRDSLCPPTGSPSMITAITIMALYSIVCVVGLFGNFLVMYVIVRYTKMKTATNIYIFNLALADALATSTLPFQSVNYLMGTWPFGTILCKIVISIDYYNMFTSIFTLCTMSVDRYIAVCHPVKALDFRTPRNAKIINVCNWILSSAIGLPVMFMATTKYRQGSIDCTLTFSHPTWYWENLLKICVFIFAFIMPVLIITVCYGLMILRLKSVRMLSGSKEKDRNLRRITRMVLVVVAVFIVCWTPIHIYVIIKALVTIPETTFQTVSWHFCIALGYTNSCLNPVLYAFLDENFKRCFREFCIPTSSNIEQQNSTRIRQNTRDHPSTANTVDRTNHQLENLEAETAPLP
Chain of Voltage-gated inwardly rectifying potassium channel KCNH2 (Q12809 whole entry): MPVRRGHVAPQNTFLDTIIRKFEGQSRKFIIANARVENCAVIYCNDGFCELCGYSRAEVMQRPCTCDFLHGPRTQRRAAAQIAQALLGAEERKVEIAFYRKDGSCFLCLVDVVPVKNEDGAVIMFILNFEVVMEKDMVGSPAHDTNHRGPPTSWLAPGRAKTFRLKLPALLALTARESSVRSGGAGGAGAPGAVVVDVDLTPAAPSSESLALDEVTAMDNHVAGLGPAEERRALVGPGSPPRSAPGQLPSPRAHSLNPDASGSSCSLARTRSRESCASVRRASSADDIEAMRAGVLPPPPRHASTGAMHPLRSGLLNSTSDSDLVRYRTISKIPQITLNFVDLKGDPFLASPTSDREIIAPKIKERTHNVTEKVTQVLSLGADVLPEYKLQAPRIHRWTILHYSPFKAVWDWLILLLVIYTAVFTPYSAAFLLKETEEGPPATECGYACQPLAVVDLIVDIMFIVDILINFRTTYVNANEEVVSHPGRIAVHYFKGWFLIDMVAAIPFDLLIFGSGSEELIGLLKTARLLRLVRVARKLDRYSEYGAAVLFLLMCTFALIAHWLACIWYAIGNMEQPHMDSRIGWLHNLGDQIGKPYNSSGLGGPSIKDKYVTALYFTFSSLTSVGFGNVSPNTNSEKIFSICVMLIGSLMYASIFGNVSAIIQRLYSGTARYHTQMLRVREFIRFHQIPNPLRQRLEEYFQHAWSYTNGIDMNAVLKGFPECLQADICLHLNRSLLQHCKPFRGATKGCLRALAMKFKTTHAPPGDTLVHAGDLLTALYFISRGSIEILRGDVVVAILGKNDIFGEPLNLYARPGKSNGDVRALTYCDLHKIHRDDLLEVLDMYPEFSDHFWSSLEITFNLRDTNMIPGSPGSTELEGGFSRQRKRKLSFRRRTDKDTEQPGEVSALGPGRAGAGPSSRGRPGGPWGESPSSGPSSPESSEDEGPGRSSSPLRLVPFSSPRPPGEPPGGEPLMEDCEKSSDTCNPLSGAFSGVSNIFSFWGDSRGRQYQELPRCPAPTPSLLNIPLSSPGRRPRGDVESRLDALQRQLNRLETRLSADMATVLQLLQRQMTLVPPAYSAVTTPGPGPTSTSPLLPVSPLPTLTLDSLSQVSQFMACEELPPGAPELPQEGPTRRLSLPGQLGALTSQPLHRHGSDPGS

As to `CC(C)CN1[C@H](c2ccc(/C=C/C(=O)O)cc2)c2ccc(O)cc2C[C@H]1C`, the hepatocyte CLint in data set [1] is 22 µL/min/1e6 cells; in data set [9], 33 µL/min/1e6 cells. Further, the fraction unbound (as a rule, free concentration divided by total concentration) in data set [2] is 0.075; in data set [7], 0.07. Further, the IC50 – broadly, the concentration at which inhibition is half-maximal – in data set [3] was > 30 µM; in data set [4], > 30 µM; in data set [11], 12 µM; in data set [14] it was 29 µM; in [15], 20 µM. The figures for the half-life in [5] and in [6] were 0.2 h and 3.9 h, respectively. For the same molecule, the solubility (usually the concentration that dissolves in the medium under given conditions) at 24 h in data set [8] was > 1500 µM. The bioavailability (as a rule, the share of a dose that reaches the circulation, judged against a reference dose that is usually intravenous) in [10] came out at 86%. In data set [12], the Vd was determined as 0.6 L/kg. For the same molecule, the logD (commonly lipophilicity at a set pH, counting ionised and neutral species) in data set [13] came out at 1.7. The clearance in data set [16] came out at 49 mL/min/kg.
On to `COC[C@H](C)CN1[C@H](c2ccc(/C=C/C(=O)O)cc2)c2ccc(O)cc2C[C@H]1C`, for which the hepatocyte CLint in data set [1] was determined as 27 µL/min/1e6 cells; in [9], 7 µL/min/1e6 cells. Moreover, the fraction unbound in [2] was 0.12; in data set [7], 0.16. The half-life (in general, the time in which the quantity being followed falls by half) is 0.2 h in data set [5] and 1.9 h in [6]. This molecule also displayed a bioavailability in data set [10] of 3%. In data set [12], the Vd amounted to 0.6 L/kg. This molecule registered a logD in data set [13] of 1. Moreover, the clearance in data set [16] stood at 63 mL/min/kg.
